Experimental data taken from patent US7960549B2, “Solid forms of a chemokine receptor antagonist and methods of use thereof” (priority 2004, dated 2011).
Counter-ions that a name gives are not always drawn.

Experiments:
Type in all cases: physicochemical
[1] = Crystallization of the Citrate Salt (Form A exposed to solvent systems under the conditions of Table 9): form(s) obtained
From the text: In other particular embodiments, solvents such as ethanol, methanol/heptane, MEK/water, n-propanol, isopropanol, isopropanol/water, acetonitrile/water, or methanol may be used to crystallize Form B. More particularly, Form B may be created by taking samples of Form A and exposing them to one of the solvent systems listed above. […] In each instance, Form A of the Citrate Salt is exposed to a solvent or solvent system under the particular conditions listed in Table 9 to generate the particular form(s) or amorphous Citrate Salt.

[2] = Prolonged exposure to fixed relative humidity or rinsing with water, XRPD before and after; conditions: for crystal form by XRPD after exposure to a relative humidity of 97.5%: month long exposure, ambient temperature
[3] = Thermal gravimetric analysis (TGA); conditions: for TGA weight loss of the transition / TGA weight loss transition, interpolated beginning temperature / TGA weight loss transition, temperature of maximum rate of weight loss: sample of the single form (Form H formed from Form E sample); for TGA weight loss transition, interpolated beginning temperature / TGA weight loss transition, temperature of maximum rate of weight loss: ±3° C.
Protocol: Measurements utilizing thermal gravimetric analysis (TGA) are carried out on a T.A. instruments TGAQ500 analyzer. Mass calibration is performed with 10 and 100 mg certified masses. Temperature calibration is performed with Alumel® and nickel standards (Curie points of respectively 154° C. and 354° C.). Samples are exposed to a constant nitrogen stream of 60 ml/min, and temperature ranges from room temperature to 350° C. at a 5° C./min rate. The quantity of product tested is between 2 and 13 mg. The sample is deposited in an open aluminum sample pan, which is itself placed in a platinum pan. The temperatures identified from TGA scans of a particular sample are accurate to within ±3° C. Simultaneous TGA and DSC measurements are carried out using a […] thermal analysis system produced by the […] corporation. A liquid nitrogen cooling system makes it possible to work at temperatures below 20° C. The emitted gases, upon sample heating, are carried by a transfer capillary tube to a Pfeiffer mass spectrometer, the capillary tube heated to 150° C. The mass spectrometer can analyze molecular fragments at <<m/e>> ratios between 1 and 200 uma. A sample with a mass between 1 and 27 mg is contained in an open concave aluminum sample pan (75 μL capacity) exposed to a nitrogen stream. The sample is heated at a rate of 1 or 5° C./min.

[4] = Differential scanning calorimetry (DSC)
Protocol: Differential scanning calorimetry (DSC) analyses are performed using a T.A Instruments Q1000 thermal analyser. Analyses are carried out using nitrogen purge gas flowing at an average rate of 50 ml/min. A mechanical compressor cools the system, and equilibrates the instruments being used at ambient temperature between analyses. […] Energy calibration is performed with a certified indium calibrator (melting enthalpy of 28.45 J/g), applying a heating rate of 5° C./min. The temperatures identified from DSC scans of a particular sample are accurate to within ±3° C. […] Modulated temperature differential scanning calorimetry (MTDSC) is also used since deconvolution of the total heat flow into reversing and non-reversing heat flows allows the transitions to be easily identified. The samples were submitted to the same experimental temperature program: after the equilibration of the sample at −5° C., the samples were heated through a modulated program from −5° C. to 210° C. at a rate of 1° C./min. […] Experiments are performed using crimped aluminium sample pans or open pans in some cases. The quantity of product analysed is typically between 2 and 13 mg.

[5] = Water sorption/desorption cycling (dynamic vapor sorption, DVS) at 25° C., with XRPD before and after; conditions: for XRPD before and after water sorption/desorption cycling: two consecutive cycles, 0% to 90% relative humidity
Protocol: Water sorption measurements are performed on a DVS-1 automated gravimetric vapor sorption analyser (Surface Measurement Systems Ltd., London, UK). The DVS-1 measures the uptake and loss of vapor gravimetrically using a Cahn D200 recording ultra-microbalance with a mass resolution of ±0.1 μg. The relative humidity around the sample is controlled by mixing saturated and dry carrier gas streams using mass flow controllers. The temperature is maintained within ±0.1° C. by enclosing the entire system in a temperature-controlled incubator. A sample size between 15 and 20 mg is used. In general, the error in % (w/w) identified in a tested sample is ±0.1% (w/w).
Two protocols are utilized to operate the DVS. In one protocol, a sample is dried at 0% relative humidity (RH) to remove any surface water present and establish a dry, baseline mass. Next, the sample is exposed to the following relative humidity profile: 0%, 10%, 20%, 30%, 40%, 50%, 60%, 70%, 80%, 90%, 80%, 70%, 60%, 50%, 40%, 30%, 20%, 10%, 0%. In some instances, this profile is repeated, yielding 4 sets of data going up and down in RH. In another protocol, the sample is first equilibrated at 40% RH, then it was exposed to the following relative humidity profile: 40%, 50%, 60%, 70%, 80%, 90%, 100%, 90%, 80%, 70%, 60%, 50% 40% 30%, 20% 10%, 0%, 10%, 20%, 30%, 40%. […] If equilibrium state is not reached, the change in relative humidity took place automatically after 360 or 600 minutes. From the complete moisture sorption and desorption profile, an isotherm is calculated using the DVS Advanced Analysis Suite v3.6. All experiments were performed at 25° C.

[6] = Controlled temperature (isothermal) X-ray powder diffraction: thermal stability of the crystalline form; conditions: dry nitrogen; for form conversion as the temperature is raised (isothermal XRPD): ambient to 210° C.
Protocol: X-ray powder diffraction (XRPD) is performed on various samples of the Citrate Salt using one of three instruments. XRPD measurements with Instrument 1 utilize a Siemens-Bruker D5000 Matic powder diffractometer with a Bragg-Brentano (vertical θ-2θ configuration) parafocusing geometry. X-rays are produced from a sealed cobalt anode running at 40 kV and 30 mA. Two lines are typically emitted: CoKα1 (λ=1.7890 Å) and CoKα2 (λ=1.7929 Å). An iron β-filter limits the CoKβ (λ=1.6208 Å) radiation to about 1% of the diffracted beam at the detector. The primary beam passes through a parallel plate collimator (0.2 mm Soller slits), then through a divergence slit (0.2 mm). Diffracted X-rays are detected with a Braun 50 M multichannel linear detector having a 10°-wide detection window in angle 2θ. Scans are performed from 1.5° to 50.0° in 2θ, the scan time being 10 to 40 seconds per degree in 2θ. The error in the 2θ locations are typically within ±0.10 degrees.
In Instrument 3, XRPD measurements are performed at different temperatures to elucidate the evolution of crystal structure with temperature. Tests are carried out with a Siemens-Bruker D5000 diffractometer equipped with the Bragg Brentano parafocusing (θ-θ) geometry and an Anton-Paar TTK temperature chamber. Measurements utilize dry nitrogen or nitrogen streams having a particular humidity. The instrument specifications are substantially similar to the Siemens-Bruker D5000 Matic instrument described above (Instrument 1). Temperature is allowed to rise at a rate of 0.05° C./sec. Scans are recorded under the following conditions: a 1.5 to 50.0 degree scan in angle 2θ, 10 to 20 seconds counting time per degree in 2θ. Data are acquired in isotherm mode when the requested temperature is reached.

[7] = heating rate 5° C./min, A, B, H: melting/decomposition, E: loss of water and conversion to Form H, ±3° C.
[8] = sample including Forms A and C, 5° C./min, Form C: conversion to Form A, Form A: melting/decomposition

CC(C)(O)c1ccc2c(c1)/C(=C/CCN1CC[C@](O)(c3ccc(Cl)cc3)C(C)(C)C1)c1cccnc1CO2 [Citrate Salt, citrate salt of (S)-4-(4-Chloro-phenyl)-1-{3-[7-(1-hydroxy-1-methyl-ethyl)-11H-10-oxa-1-aza-dibenzo[a,d]cyclohepten-5-ylidene]-propyl}-3,3-dimethyl-piperidin-4-ol]
Form(s) identified ([1]; Crystallization after dissolution THF, followed by a slow evaporation at ambient temperature and atmospheric pressure): A + D
Form(s) identified ([1]; Crystallization after dissolution at high temperature in THF/water): A + C
Form(s) identified ([1]; Dissolution at ambient temperature in DMSO/water): Amorphous
Form(s) identified ([1]; Dissolution in THF/water and azeotropic distillation (isolation in water)): Amorphous
Form(s) identified ([1]; Dissolution in dichloromethane/methanol, followed by a quick evaporation at ambient temperature and low pressure): Amorphous
Form(s) identified ([1]; Maturation in THF of Forms A and B at ambient temperature): A + C
Form(s) identified ([1]; Maturation in water of the amorphous form at ambient temperature): E + F + G

CC(C)(O)c1ccc2c(c1)/C(=C/CCN1CC[C@](O)(c3ccc(Cl)cc3)C(C)(C)C1)c1cccnc1CO2 [Form B, citrate salt of (S)-4-(4-Chloro-phenyl)-1-{3-[7-(1-hydroxy-1-methyl-ethyl)-11H-10-oxa-1-aza-dibenzo[a,d]cyclohepten-5-ylidene]-propyl}-3,3-dimethyl-piperidin-4-ol]
stability when rinsed with water, XRPD before and after the rinsing [2]: stable to 100% relative humidity
crystal form by XRPD after exposure to a relative humidity of 97.5% [2]: does not change form
TGA weight loss from ambient temperature to about 100° C. ([3]; heating rate 5° C./min): No weight loss is detected
TGA weight loss of the transition ([3]; heating rate 5° C./min): about 27.5 % (w/w)
TGA weight loss transition, interpolated beginning temperature ([3]; heating rate 5° C./min): about 180 °C
TGA weight loss transition, temperature of maximum rate of weight loss ([3]; heating rate 5° C./min): 192 °C
DSC endothermic transition, Tmax ([4]; heating rate 1° C./min): 179 °C
DSC endothermic transition, interpolated beginning temperature ([4]; heating rate 1° C./min): 174 °C
DSC endothermic transition, Tmax [4, 7]: 189 °C
DSC endothermic transition, interpolated beginning temperature [4, 7]: 184 °C
change in moles of water per mole of anhydrous crystal over relative humidity 0% to 90% ([5]; 25° C.): about 0.4 moles of water per mole of anhydrous crystal
change in mass as the relative humidity is changed between 0% and 90% ([5]; 25° C., dry crystal basis, known to within ±0.1%): about 0.9%
XRPD before and after water sorption/desorption cycling ([5]; 25° C.): no structural change

CC(C)(O)c1ccc2c(c1)/C(=C/CCN1CC[C@](O)(c3ccc(Cl)cc3)C(C)(C)C1)c1cccnc1CO2 [Form C, citrate salt of (S)-4-(4-Chloro-phenyl)-1-{3-[7-(1-hydroxy-1-methyl-ethyl)-11H-10-oxa-1-aza-dibenzo[a,d]cyclohepten-5-ylidene]-propyl}-3,3-dimethyl-piperidin-4-ol]
form conversion as the temperature is raised (isothermal XRPD) [6]: conversion of the Form C crystals to Form A
TGA weight loss ([3]; sample including Forms A and C): about 8.22 % (w/w)
TGA weight loss, temperature of maximum rate of weight loss ([3]; sample including Forms A and C): 162 °C
TGA weight loss, interpolated beginning temperature ([3]; sample including Forms A and C, Form C: conversion away from Form C, Form A: decomposition/melting): 157 °C
DSC endothermic transition between Form C and Form A, Tmax ([4]; heating rate 20° C./min): 171 °C
DSC endothermic transition between Form C and Form A, interpolated beginning temperature ([4]; heating rate 20° C./min): 165 °C
DSC endothermic transition, Tmax [4, 8]: 166 °C
DSC endothermic transition, interpolated beginning temperature [4, 8]: about 161 °C
XRPD before and after water sorption/desorption cycling ([5]; 25° C.): no structural modification

CC(C)(O)c1ccc2c(c1)/C(=C/CCN1CC[C@](O)(c3ccc(Cl)cc3)C(C)(C)C1)c1cccnc1CO2 [Form E, citrate salt of (S)-4-(4-Chloro-phenyl)-1-{3-[7-(1-hydroxy-1-methyl-ethyl)-11H-10-oxa-1-aza-dibenzo[a,d]cyclohepten-5-ylidene]-propyl}-3,3-dimethyl-piperidin-4-ol]
form conversion as the temperature is raised (isothermal XRPD) [6]: converts to Form B
loss of stability (lines unique to the form disappear), isothermal XRPD ([6]; sample containing Forms E, F, and G, steps of 10° C.): above 50 °C
TGA weight loss of the transition ([3]; heating rate 5° C./min): 6.14 % (w/w)
TGA weight loss transition, interpolated beginning temperature ([3]; heating rate 5° C./min): 52 °C
TGA weight loss transition, temperature of maximum rate of weight loss ([3]; heating rate 5° C./min): 64 °C
DSC endothermic transition, Tmax [4, 7]: 67 °C
DSC endothermic transition, interpolated beginning temperature [4, 7]: 45 °C
DSC endothermic transition, integrated enthalpy change ([4]; heating rate 5° C./min, transition 2411, conversion of Form E to Form H): 178.3 J/g
weight change / water uptake between 10% and 90% relative humidity ([5]; 25° C.): about 2.28 % (w/w)
weight gain / water uptake as relative humidity is increased from 0% to 10% ([5]; 25° C.): about 5.13 % (w/w)
behaviour under 10% relative humidity (observed at 0% relative humidity) ([5]; ambient temperatures): fully transforms into form H
XRPD before and after water sorption/desorption cycling ([5]; 25° C.): a structure corresponding with Form H after the cycling

CC(C)(O)c1ccc2c(c1)/C(=C/CCN1CC[C@](O)(c3ccc(Cl)cc3)C(C)(C)C1)c1cccnc1CO2 [batch F1]
stability when rinsed with water, XRPD before and after the rinsing [2]: loss of lines of Form F and diminution of lines of Form G, while the lines of Form E grow
crystal form by XRPD after exposure to a relative humidity of 0% ([2]; about one month): a mixture of Forms E and B
crystal form by XRPD after exposure to a relative humidity of 97.5% [2]: loss of lines of Form F and diminution of lines of Form G, while the lines of Form E grow
